The values that follow are results of earlier work, collected in patent US20130115264A1, “IMPLANTABLE RASAGILINE COMPOSITIONS AND METHODS OF TREATMENT THEREOF” (Endo Pharmaceuticals Solutions Inc., priority 2011, published 2013).

Counter-ions that a name gives are not always drawn.

The conditions of series [1]: oral dosage form.
Another series deals with MAO-B. Conditions: ex vivo, brain, liver and intestinal tissues.
The conditions of series [2]: in vivo.

Turning to `C#CCN[C@@H]1CCc2ccccc21` [rasagiline mesylate], in series [1], the oral bioavailability is given as about 35%.

For `C#CCN[C@@H]1CCc2ccccc21` [rasagiline, R-(+)-N-propargyl-1-aminoindan], the MAO-B inhibition entry in the series with MAO-B is given as “potent, irreversible MAO-B selective inhibitor”. Further, the half-life entry in series [2] is “about 3 hours”.
